Five molecules from US20260014285A1, “POLYPEPTIDE COMPOUND, AND COMPLEX AND USE THEREOF” (HANGZHOU HEALTHYTIDE BIOTECHNOLOGY CO., LTD., priority 2022, published 2026) can be followed below.

One experiment has as its target integrin α5β1 (Homo sapiens, UniProt P05556+P08648). Briefly: Target affinity test by surface plasmon resonance (SPR), integrin α5β1. Format: binding. Particulars: for Kd: SPR (Biacore T200), CM5 chip, 25° C., KD=Kd/Ka; for affinity constant (KD) to integrin α5β1, in words: SPR. How it is done: (§1) Surface plasmon resonance (SPR) technique was used to test the affinity of the compound in the examples to the target protein integrin α5β1. Specifically, the following operations were performed.
(§2) The affinity constants (KD) of the compounds to the target proteins integrin α5β1, αvβ3, and αvβ5 were calculated according to the formula of KD=Kd/Ka (the lower the value of KD, the higher the affinity of the compounds of the examples to the target protein integrin α5β1).

The next experiment addresses integrin αvβ3 (Homo sapiens, UniProt P05106+P06756). Briefly: Target affinity test by surface plasmon resonance (SPR), integrin αvβ3. Format: binding. Particulars: for affinity constant (KD) to integrin αvβ3, in words: SPR; for Kd: SPR (Biacore T200), CM5 chip, 25° C., KD=Kd/Ka. How it is done:
as §1, §2

The structures appear in SMILES notation. Non-standard residues stand in square brackets, D forms with d. Residues, ends and D or L forms follow the SMILES beside them. ξ: configuration not given here. *: point of attachment. DOTA = O=C(O)CN1CCN(CC(=O)O)CCN(CC(=O)*)CCN(CC(=O)O)CC1; ξIle = CC[C@H](C)C(N)C(=O)O; AEEA = NCCOCCOCC(=O)O; Aib = CC(C)(N)C(=O)O; AEA = NCCOCC(=O)O

integrin αvβ3, sequence (P06756 31-992 limits assumed): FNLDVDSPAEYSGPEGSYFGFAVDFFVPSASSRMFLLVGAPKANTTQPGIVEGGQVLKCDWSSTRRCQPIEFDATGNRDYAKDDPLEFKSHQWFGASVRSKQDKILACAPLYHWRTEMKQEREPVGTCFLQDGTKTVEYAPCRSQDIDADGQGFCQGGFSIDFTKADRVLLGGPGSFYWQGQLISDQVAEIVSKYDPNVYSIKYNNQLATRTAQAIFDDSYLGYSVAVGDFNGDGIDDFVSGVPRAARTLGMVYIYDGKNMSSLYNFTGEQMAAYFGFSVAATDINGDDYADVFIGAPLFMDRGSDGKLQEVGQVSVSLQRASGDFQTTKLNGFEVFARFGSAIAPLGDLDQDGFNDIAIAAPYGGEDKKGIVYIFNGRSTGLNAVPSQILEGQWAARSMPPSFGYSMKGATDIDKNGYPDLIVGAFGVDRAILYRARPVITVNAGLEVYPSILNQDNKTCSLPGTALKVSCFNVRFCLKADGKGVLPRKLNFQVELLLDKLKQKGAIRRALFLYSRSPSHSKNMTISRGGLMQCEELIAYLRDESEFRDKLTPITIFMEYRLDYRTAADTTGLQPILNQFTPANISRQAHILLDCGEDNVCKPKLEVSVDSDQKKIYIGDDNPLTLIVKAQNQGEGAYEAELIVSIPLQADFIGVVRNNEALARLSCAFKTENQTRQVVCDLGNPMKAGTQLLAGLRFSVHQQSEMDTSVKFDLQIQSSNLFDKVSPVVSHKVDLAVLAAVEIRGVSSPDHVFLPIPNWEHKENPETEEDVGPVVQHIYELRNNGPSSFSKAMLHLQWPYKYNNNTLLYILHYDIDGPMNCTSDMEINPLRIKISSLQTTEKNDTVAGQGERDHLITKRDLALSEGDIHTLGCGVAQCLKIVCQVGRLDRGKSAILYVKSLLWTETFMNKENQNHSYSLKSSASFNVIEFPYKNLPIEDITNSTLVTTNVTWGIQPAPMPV
integrin αvβ3, sequence (P05106 27-718 limits assumed): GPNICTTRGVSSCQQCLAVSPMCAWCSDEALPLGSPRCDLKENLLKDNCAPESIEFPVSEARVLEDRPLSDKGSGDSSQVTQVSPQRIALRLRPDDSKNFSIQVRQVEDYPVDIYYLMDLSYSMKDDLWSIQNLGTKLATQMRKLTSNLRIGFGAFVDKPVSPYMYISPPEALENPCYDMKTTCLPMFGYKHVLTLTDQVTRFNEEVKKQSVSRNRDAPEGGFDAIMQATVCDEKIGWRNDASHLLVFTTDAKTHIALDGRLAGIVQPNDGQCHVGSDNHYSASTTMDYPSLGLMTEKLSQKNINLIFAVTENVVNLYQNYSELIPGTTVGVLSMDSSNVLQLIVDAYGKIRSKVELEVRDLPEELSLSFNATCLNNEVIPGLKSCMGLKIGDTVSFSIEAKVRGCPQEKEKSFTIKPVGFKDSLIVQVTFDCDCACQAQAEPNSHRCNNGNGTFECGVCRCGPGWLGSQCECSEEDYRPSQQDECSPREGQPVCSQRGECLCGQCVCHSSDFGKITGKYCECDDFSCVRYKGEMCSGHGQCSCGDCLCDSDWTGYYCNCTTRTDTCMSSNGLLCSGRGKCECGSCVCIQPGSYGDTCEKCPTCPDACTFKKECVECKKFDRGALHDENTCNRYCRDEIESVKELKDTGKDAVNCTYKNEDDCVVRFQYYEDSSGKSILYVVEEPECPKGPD
integrin α5β1, sequence (P08648 42-995 limits assumed): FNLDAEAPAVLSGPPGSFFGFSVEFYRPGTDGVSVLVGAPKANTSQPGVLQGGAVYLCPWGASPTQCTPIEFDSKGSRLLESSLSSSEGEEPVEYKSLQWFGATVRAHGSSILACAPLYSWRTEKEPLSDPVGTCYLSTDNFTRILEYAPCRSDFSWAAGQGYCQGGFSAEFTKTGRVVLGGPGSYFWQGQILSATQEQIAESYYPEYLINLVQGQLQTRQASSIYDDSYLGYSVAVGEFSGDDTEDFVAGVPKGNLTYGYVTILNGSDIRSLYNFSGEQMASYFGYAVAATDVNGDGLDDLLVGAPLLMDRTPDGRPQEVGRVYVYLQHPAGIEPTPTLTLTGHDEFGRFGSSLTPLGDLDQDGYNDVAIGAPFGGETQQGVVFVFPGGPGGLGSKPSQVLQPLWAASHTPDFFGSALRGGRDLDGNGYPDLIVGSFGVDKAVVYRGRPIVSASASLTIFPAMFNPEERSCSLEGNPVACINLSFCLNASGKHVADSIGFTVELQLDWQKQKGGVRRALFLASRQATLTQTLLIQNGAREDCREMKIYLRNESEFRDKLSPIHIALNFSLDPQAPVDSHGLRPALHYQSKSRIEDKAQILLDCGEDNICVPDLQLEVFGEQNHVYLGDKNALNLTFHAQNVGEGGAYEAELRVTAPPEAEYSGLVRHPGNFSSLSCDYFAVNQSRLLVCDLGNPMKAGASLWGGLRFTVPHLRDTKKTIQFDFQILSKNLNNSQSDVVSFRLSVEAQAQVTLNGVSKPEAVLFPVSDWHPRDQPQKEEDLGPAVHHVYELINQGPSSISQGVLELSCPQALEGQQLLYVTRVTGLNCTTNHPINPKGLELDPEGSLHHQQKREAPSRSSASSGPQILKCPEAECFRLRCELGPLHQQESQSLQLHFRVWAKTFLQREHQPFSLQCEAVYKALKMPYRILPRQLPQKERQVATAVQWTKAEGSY
integrin α5β1, sequence (P05556 21-728 limits assumed): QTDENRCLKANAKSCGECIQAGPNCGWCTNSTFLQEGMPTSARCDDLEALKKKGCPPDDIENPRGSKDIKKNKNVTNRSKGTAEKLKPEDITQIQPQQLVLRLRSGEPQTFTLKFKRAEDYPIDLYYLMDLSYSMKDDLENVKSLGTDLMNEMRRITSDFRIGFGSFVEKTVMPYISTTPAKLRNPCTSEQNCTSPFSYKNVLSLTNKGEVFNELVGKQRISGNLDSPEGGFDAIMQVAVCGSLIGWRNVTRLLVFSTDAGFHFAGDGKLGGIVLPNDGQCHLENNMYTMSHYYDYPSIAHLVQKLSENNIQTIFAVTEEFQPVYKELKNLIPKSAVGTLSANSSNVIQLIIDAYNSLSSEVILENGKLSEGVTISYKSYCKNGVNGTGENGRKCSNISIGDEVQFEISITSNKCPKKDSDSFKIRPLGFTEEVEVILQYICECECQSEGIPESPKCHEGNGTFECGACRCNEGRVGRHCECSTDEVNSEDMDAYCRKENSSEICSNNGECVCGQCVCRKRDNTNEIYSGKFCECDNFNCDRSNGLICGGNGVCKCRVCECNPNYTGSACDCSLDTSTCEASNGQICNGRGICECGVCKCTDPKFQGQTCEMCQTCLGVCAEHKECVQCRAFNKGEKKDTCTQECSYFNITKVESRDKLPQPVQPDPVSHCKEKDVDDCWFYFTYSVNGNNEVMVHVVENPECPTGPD

With `CC[C@H](C)[C@H](NC(=O)[C@@H](NC(=O)[C@H](CC(=O)O)NC(=O)[C@H](CC(N)=O)NC(=O)CN1CCN(CC(=O)O)CCN(CC(=O)O)CCN(CC(=O)O)CC1)C(C)C)C(=O)N[C@@H](CC(N)=O)C(=O)O` [TM4, DOTA-Asn-Asp-Val-Ile-Asn-OH] ({DOTA}-NDVIN-OH), binding on integrin α5β1 was characterised by a dissociation constant (Kd) of 16 nM. Besides, at integrin αvβ3, the “affinity constant (KD) to integrin αvβ3, in words” value is on record as “nM level” and the Kd came out at 2.88 nM.

For the molecule `CC[C@H](C)C(NC(=O)[C@@H](NC(=O)[C@H](CC(=O)O)NC(=O)[C@H](CC(N)=O)NC(=O)[C@H](CC(=O)O)NC(=O)CNC(=O)[C@H](CCCNC(=N)N)NC(=O)COCCNC(=O)CN1CCN(CC(=O)O)CCN(CC(=O)O)CCN(CC(=O)O)CC1)C(C)C)C(=O)N[C@@H](CC(N)=O)C(=O)O` (stereo partly shown) [TM15] ({DOTA-AEA}-RGDNDV[ξIle]N-OH), on integrin α5β1, the “affinity constant (KD) to integrin α5β1, in words” value was “better than nM level” and the Kd is 0.992 nM. At integrin αvβ3, the “affinity constant (KD) to integrin αvβ3, in words” value is “nM level” and binding was characterised by a dissociation constant (Kd) of 1.69 nM.

`CC[C@H](C)C(NC(=O)[C@@H](NC(=O)[C@H](CC(=O)O)NC(=O)[C@H](CC(N)=O)NC(=O)COCCOCCNC(=O)CN1CCN(CC(=O)O)CCN(CC(=O)O)CCN(CC(=O)O)CC1)C(C)C)C(=O)N[C@@H](CC(N)=O)C(=O)O` (stereo partly shown) [TM14] ({DOTA-AEEA}-NDV[ξIle]N-OH): the “affinity constant (KD) to integrin α5β1, in words” value on integrin α5β1 was “better than nM level”. Besides, the figures for the dissociation constant (Kd) at integrin α5β1 and on integrin αvβ3 were 9.43 nM and 36.7 nM, respectively.

In turn, `CC[C@H](C)[C@H](NC(=O)[C@@H](NC(=O)[C@H](CC(=O)O)NC(=O)[C@H](CC(N)=O)NC(=O)COCCNC(=O)CN1CCN(CC(=O)O)CCN(CC(=O)O)CCN(CC(=O)O)CC1)C(C)C)C(=O)N[C@@H](CC(N)=O)C(=O)O` [TM13] ({DOTA-AEA}-NDVIN-OH) yielded a Kd at integrin α5β1 of 1450 nM. Also, at integrin αvβ3, the “affinity constant (KD) to integrin αvβ3, in words” value is listed as “nM level” and binding was characterised by a dissociation constant (Kd) of 0.646 nM.

With `CC[C@H](C)[C@H](NC(=O)C(C)(C)NC(=O)[C@H](CC(=O)O)NC(=O)[C@H](CC(N)=O)NC(=O)CN1CCN(CC(=O)O)CCN(CC(=O)O)CCN(CC(=O)O)CC1)C(=O)N[C@@H](CC(N)=O)C(=O)O` [TM11] ({DOTA}-ND[Aib]IN-OH), on integrin α5β1, the “affinity constant (KD) to integrin α5β1, in words” value is reported as “better than nM level” and the Kd was determined as 0.0681 nM. Besides, the Kd on integrin αvβ3 stood at 190 nM.
